# “Also recorded” adds a separate entry of the source. Read-outs that look alike come from different tables or passages of the source.
# Legend:
# [1] = system: P2X7 receptor (CD4+CD25+ population); test: Effect of P2X7 antagonists on PMB/ATP-induced depletion of CD4+CD25+ population in splenocytes (Example 2); assay type: cell-based, mice; conditions: for inhibition of the effect induced by ATP 100 μM over CD4+CD25+ population: BBG 100 nM (FIG. 5), A740003 (FIG. 6); for inhibition of the effect of low dose PMB and ATP over CD4+CD25+ populations: PPADS 10 μM, BBG 100 nM, PMB 1 μg/mL, ATP 60 μM and both, FIG. 4
# Protocol: (§1) To determine the in vitro effect of polymyxin and other receptor modulators: P2X7, spleen from mice b6 and/or balbc were extracted, and splenocytes were isolated using repeated centrifugation, eliminating red cells for treatment with a lysis buffer ACK. Generally, the experiments were performed in cells obtained from animals b6. The obtained splenocytes are cultured in RPMI Medium supplemented with antibiotics and serum at 10%. Cells remain in rest for 2 hours at a concentration of 1 million cells/ml, after the same are breeding and incubated with purinergic agonists dissolved in PBS (ATP 0.1 μM-1,000 μM and NAD 0.01-1,000 μM), modulators of PMB receptor (0.001 up to 1,000 μg/m1) and gramicidine (0.001 up to 100 mg/ml). In the case of antagonists, these are used at concentrations which have been described as being more specific to P2X7 than other receptors.
# Splenocytes were treated with PMB (Sigma-Aldrich, St Louis, Mont., USA) to different times and concentrations in presence of two modulators negative of the P2X7, PPADS activity and specific antagonist of P2X7 Brilliant Blue G (BBG) (see Brilliant Blue G Selectively Blocks ATP-Gated Rat P2X7 receptors. JIANG, 2000. 12). Cells were kept for 24 hrs in conditions of cell culture. Subsequently cells were recollected, blotted and analyzed by flow cytometry.
# [2] = system: systemic regulating T lymphocytes in animal spleen; test: In vivo Treg lymphocyte depletion in spleen after subcutaneous injection (Examples 3 and 5); parameters: species or system mice C57/BL6; conditions: for death of systemic regulating T lymphocytes in spleen, drug alone: day 3 post challenge, PMB up to 400 μg total or ATP up to 50 μmoles, FIGS. 10A-10C
# Protocol: To evaluate the complementary PMB activity in antitumor therapy, first is determined the effect of this over the in vivo regulating T population. To this, animals having 6-15 weeks and different sex were subcutaneously injected with a solution containing PMB alone (between 4 to 400 μg total), ATP (between 0,4 a 40 mg total) or mixture thereof, in ratios which are not affected therebetween, the CD4CD25 foxp3 population. Animals were dead are different post-injection time, spleen was extracted, erythrocytes eliminated and T lymphocytes present evaluated. […] To evaluate the complementary PMB activity in antitumor therapy, cells B16 were cultured under standard conditions in a culture DMEM medium with fetal bovine serum at 10% in a culture stove at 37° C. and 5% CO2. Cells were cultures and submitted to dead induced by deprivation of culture medium for 96 hours, into a culture stove. Cell bodies obtained were collected in sterility conditions and stored at a concentration estimated considering 1 million initial cells/ml. These bodies were prepared together with PMB and ATP inducing a reduction of T reg lymphocytes and injected 3 times each 7 days. After 7 days, once ended the immunization protocol, animals were challenged with 20.000 cells b16 alive obtained from exponential growing culture. Tumor growth was evaluated by hand after the first week daily and measure with a vernier calliper.
# Mice were dead, the spleen was extracted and then marking with α-CD4, αCD25, α-CD8 and α-Foxp3 antibodies were made.
# Subcutaneous injections were made in mice C57/BL6 of 6 weeks old with different concentrations of PMB, ATP or mixing concentrations of both. Mice were dead, the spleen extracted and subsequently markings were made with α-CD4, αCD25, α-CD8 and α-Foxp3 antibodies.
# [3] = system: Melanome murine cells B16; test: Antitumor immune therapy: immunization with B16 apoptotic bodies, then tumor challenge (Example 4); assay type: in vivo, mice; conditions: for prophylaxis against the development of tumor b16: given with cell bodies; for protection of challenged animals (free of tumor): cell bodies (CA B16) alone or with the additive
# Protocol: To evaluate the complementary PMB activity in antitumor therapy, first is determined the effect of this over the in vivo regulating T population. To this, animals having 6-15 weeks and different sex were subcutaneously injected with a solution containing PMB alone (between 4 to 400 μg total), ATP (between 0,4 a 40 mg total) or mixture thereof, in ratios which are not affected therebetween, the CD4CD25 foxp3 population. Animals were dead are different post-injection time, spleen was extracted, erythrocytes eliminated and T lymphocytes present evaluated. The results obtained herein allow determining that PMB injected deplexing regukating T lymphocytes under a transient way. To evaluate the complementary PMB activity in antitumor therapy, cells B16 were cultured under standard conditions in a culture DMEM medium with fetal bovine serum at 10% in a culture stove at 37° C. and 5% CO2. Cells were cultures and submitted to dead induced by deprivation of culture medium for 96 hours, into a culture stove. Cell bodies obtained were collected in sterility conditions and stored at a concentration estimated considering 1 million initial cells/ml. These bodies were prepared together with PMB and ATP inducing a reduction of T reg lymphocytes and injected 3 times each 7 days. After 7 days, once ended the immunization protocol, animals were challenged with 20.000 cells b16 alive obtained from exponential growing culture. Tumor growth was evaluated by hand after the first week daily and measure with a vernier calliper. The resuts obtained herein allow determining that PMB in vivo plus ATP and with cell bodies act in a prophylactic way increasing the number of animals free of tumor after the challenge with alive b16 cells.
# Mice from 6 to 8 weeks old were treated with apoptotic bodies (CA) derived from Melanome murine cells B16 (2×10^4), with CA B16 plus ATP 500 μM, CA B16 plus PMB 10 mg/mL and with mixtures if the above three, the control was performed with the sterile immunization carrier PBS 1X.
# Immunizations were performed by subcutaneous injection in the right flank in a final volume of 50 μL, at day 0, 7 and 21 of treatment. Day 0 marks the starting of the treatments. In day 28 post injection a tumor challenge was made. To that 10^4 tumor cells alive were injected in the left flank of the individual in a volume of 50 μL in sterile PBS 1X.
# (§2) Mice were daily observed recording activity, weight and aspect according to parameters described by Morton y Griffiths, 1985 (see Morton D B, Griffiths P H. Guidelines on the recognition of pain, distress and discomfort in experimental animals and an hypothesis for assessment. Vet Rec. 1985 Apr. 20; 116(16):431-6). The tumor appearance was recorded and followed up to a tumor volume of 0.6 cm^3, in which animals were euthanized by cervical dislocation.
# [4] = system: CD4+CD25+FOXP3+ lymphocyte populations (human Treg); test: Effect on human Treg lymphocyte populations in PBML from peripheral blood (Example 6); assay type: cell-based; conditions: 24 h; FIG. 11
# Protocol: PBML 2×10^6 cells/ml obtained from peripheral blood extracted by centrifugation in gradient was cultured under standard conditions. Subsequently cells were treated with PMB (Sigma-Aldrich, St Louis, Mont., USA). The Treatments were kept for 24 h, in which cell remain in RPMI-1640 medium supplemented at 37° C. 5% CO2. After the treatments cells were harvested in buffer IF (PBS 2% SFB) cold. The obtained cells were blocked at 4° C. for 30 min in buffer IF. To determine the CD4+, CD8+ and CD4+CD25+FOXP3+ lymphocyte populations. After incubation cells were resuspended in buffer IF and analyzed by flow cytometry in the FACSCantoll equipment (Beckett Dickinson, Mississauga, Ontario, USA).
# [5] = system: CD4+CD25+FOXP3+ lymphocyte populations (Treg); test: In vitro effect on Treg cells in total mouse splenocyte population, flow cytometry (Example 1); assay type: cell-based, mice C57/BL6; conditions: for modification of the ATP-induced effect on Treg cells: ATP response curve, FIGS. 3A and 3B
# Protocol: as §1
# Cells are cultured for different time under a RPMI culture environment supplemented with antibiotics (penicillin, streptomycin and fungizone) with serum fetal bovine serum at 10% in a culture stove at 37° C. and 5% CO2, which will be named as standard conditions. To evaluate the effect of the treatment over regulating T lymphocytes, samples were taken for the treatments (independients) at 24, 48 and 72 hours post challenge. The recovered lymphocytes were centrifuged at 800 g and processed to be marked with antibodies against CD4, CD8, CD25. […] Samples were analyzed in a cytometer of low and analized to different subpopulations to different evaluated times. The results obtained herein allow determining that PMB in vitro under the described conditions, selectively deplexing to splenocyte regulating T lymphocytes.
# Splenocytes 2×10^6 cells/ml obtained from spleen of mice C57/BL6 (6 weeks old) were cutured by 1 hour in plates 24 wells at 37° C., 5% CO2. Lately, cells were treated with PMB (Sigma-Aldrich, St Louis, Mont., USA) to different times and concentrations (0-24-48 and 72 hours, concentrations from 0.01 a 1,000 μg/ml). The treatments were kept for 24, 48 and 72 h, in which cells were kept into RPMI-1640 medium supplemented at 37° C. 5% CO2. After the treatments cells were harvested in buffer IF (PBS 2% SFB) could without dragging the adherent population. The obtained cells were blocked at 4° C. for 30 min in buffer IF. To determine the CD4+, CD8+y CD4+CD25+FOXP3+ lymphocyte populations, about 10^6 cells to were incubated with Anti-CD8 Ly-2 (BDpharmigen, Mississauga, Ontario, USA) 4° C. for 30 min with constant stirring and CD4+ T lymphocytes and Treg were identified with the kit of marking cells Treg #3 (eBioscience, San Diego, Calif., USA)as the manufacturer protocol. After the incubation cells were re-suspended in buffer IF and analyzed by flow cytometry in the equipment FACSCantoll (Beckett Dickinson, Mississauga, Ontario, USA). The same experiments above described were repeated evaluating the effect of gramicidine, ATP and ATP in presence of two PMB concentrations.
# [6] = system: CD4+, CD8+ lymphocyte populations; test: In vitro effect on CD8 and CD4 populations in total mouse splenocyte population, flow cytometry (Example 1); assay type: cell-based, mice C57/BL6
# Protocol: To determine the in vitro effect of polymyxin and other receptor modulators: P2X7, spleen from mice b6 and/or balbc were extracted, and splenocytes were isolated using repeated centrifugation, eliminating red cells for treatment with a lysis buffer ACK. Generally, the experiments were performed in cells obtained from animals b6. The obtained splenocytes are cultured in RPMI Medium supplemented with antibiotics and serum at 10%. […]
# Cells are cultured for different time under a RPMI culture environment supplemented with antibiotics (penicillin, streptomycin and fungizone) with serum fetal bovine serum at 10% in a culture stove at 37° C. and 5% CO2, which will be named as standard conditions. […] Samples were analyzed in a cytometer of low and analized to different subpopulations to different evaluated times. […]
# Splenocytes 2×10^6 cells/ml obtained from spleen of mice C57/BL6 (6 weeks old) were cutured by 1 hour in plates 24 wells at 37° C., 5% CO2. […] After the incubation cells were re-suspended in buffer IF and analyzed by flow cytometry in the equipment FACSCantoll (Beckett Dickinson, Mississauga, Ontario, USA). […]
# [7] = Secondary effects on health condition and regular behavior of treated animals; assay type: in vivo, mice; conditions: effective dose in animals
# Protocol: as §2
# [8] = system: lymphoma EL4 y EL4/ADM, tumor cell lines C1498 y REH; conditions: cited from earlier work
# [9] = total population of spleeny lymphocytes
compound,measurement,setting,value
COc1ccc(CC(=O)NC(N=C(NC#N)Nc2cccc3ncccc23)C(C)(C)C)cc1OC (stereo not drawn) [A740003],inhibition of the effect induced by ATP 100 μM over CD4+CD25+ population,[1],inhibits only
Nc1ncnc2c1ncn2[C@@H]1O[C@H](COP(=O)(O)OP(=O)(O)OP(=O)(O)O)[C@@H](O)[C@H]1O [ATP],"death of systemic regulating T lymphocytes in spleen, drug alone",[2],does not induce the death
same,prophylaxis against the development of tumor b16,[3],induces prophylaxis
same,death of human Treg cells,[4],induces the death of Treg cells
"CCOc1ccc(Nc2ccc(/C(=C3C=C/C(=[N+](/CC)Cc4cccc(S(=O)(=O)[O-])c4)C=C/3C)c3ccc(N(CC)Cc4cccc(S(=O)(=O)[O-])c4)cc3C)cc2)cc1.[Na+] [BBG, Brilliant Blue G]",inhibition of the effect induced by ATP 100 μM over CD4+CD25+ population,[1],only inhibits
same,inhibition of the effect of low dose PMB and ATP over CD4+CD25+ populations,[1],are inhibited
Cc1nc(N=Nc2ccc(S(=O)(=O)O)cc2S(=O)(=O)O)c(COP(=O)(O)O)c(C=O)c1O [PPADS],inhibition of the effect of low dose PMB and ATP over CD4+CD25+ populations,[1],are inhibited
gramicidine,effect over Treg (CD4+CD25+) population,[5]; [9],does not induce changes
same,"effect over CD8 / CD4 (T helper, T cytotoxic) populations",[6],does not induce changes
polymyxin B [PMB],depleting concentration relative to that used in clinical and therapeutic procedures,[5],100 times lower
same,modification of the ATP-induced effect on Treg cells,[5]; PMB at 1 μg/ml,slightly modifies the effect induced by ATP
same,modification of the ATP-induced effect on Treg cells,[5]; PMB at 10 μg/ml,produces a significant change in the response curve to ATP
same,effect over Treg (CD4+CD25+) population,[5]; [9],able to induce the death
same,PMB concentration at which PMB itself induces Treg cell depletion,"[5]; total population of spleeny lymphocytes, FIGS. 1A and 1B",≥ 1 µg/mL
same,"effect over CD8 / CD4 (T helper, T cytotoxic) populations",[6]; [9],does not significantly affect; also recorded: without affecting the CD8 population neither the CD4 population
same,dependence of Treg depletion on P2X7 receptor activation,[1]; 24 hrs culture with PPADS or BBG,partially depends on the P2X7 receptor activation
same,potentiation of Treg lymphocyte depletion in vivo,"[2]; after 72 hrs of in vivo exposition, PMB 150 and 350 μg/Kg with ATP 1 g/Kg",can potentiate the deplexion
same,PMB dose giving maximum depletion of Tregs lymphocytes,"[2]; at a determined ATP dose (1 g/Kg), subcutaneous, FIG. 8",0.35 mg/kg
same,dose behavior in depletion of Tregs lymphocytes,"[2]; at a determined ATP dose, FIG. 8",linear behavior
same,"death of systemic regulating T lymphocytes in spleen, drug alone",[2],does not induce the death
same,protection of challenged animals (free of tumor),"[3]; day 20 after inoculation of tumor cells, ATP 500 μM, PMB 10 mg/mL",60%
same,protection of challenged animals (free of tumor),[3]; day 60 post inoculation,20%
same,prophylaxis against the development of tumor b16,[3],induces prophylaxis
same,increase of effectiveness of antitumor immunotherapy based on tumor cell bodies,[3]; murine melanoma model,50%
same,death of human Treg cells,[4],induces the death of Treg cells
same,secondary effects over health condition and regular behavior,[7],does not demonstrate the appearance of secondary effects
same,cell death in eukaryote tumor cell lines,[8],induces cell death
